Test results taken from patent US10066212B2, “Method for preparing induced pluripotent stem cells using synthetic peptide” (Seoul National University R&DB Foundation, priority 2015, dated 2018).

What was measured:
Format in all cases: cell-based
[1] = system: human dermal fibroblasts introduced with reprogramming genes; assay: Mesenchymal-epithelial transition (MET) by THY1/EPCAM flow cytometry (FACS); settings: 10 days of peptide treatment; compared with control peptides C1 or C2; FIG. 3
Experimental: Using the same method as in Example 2-1, reprogramming genes were introduced into the cells by an electroporation method in human dermal fibroblasts and divided in a 6-well coated with Vitronectin. After 10 days of peptide treatment in which the cells were stabilized, the cells were collected in a 15 ml Falcon tube by using a scrapper and then centrifuged for 3 minutes at 1500 rpm. The cells were washed with a buffer (PBS) and then 1.5×10^5 cells were transferred to each tube by using cold PBS. THY1 (cat: sc-59398) and EPCAM (cat: ab20160) antibodies at a concentration of 10 μg/ml were diluted with a 3% BSA/PBS solution in the tube and reacted for 30 minutes at 4° C., and then centrifuged three times for 5 minutes at 1500 rpm. After washing with cold PBS, the cells were transferred to a round tube and analyzed by flow cytometry (FACS). Before measuring samples, a control reference value was fixed using THY1 for human dermal fibroblasts and EPCAM for a human mammary epithelial cell (HMEC).

[2] = system: human dermal fibroblasts introduced with reprogramming genes; assay: Oct4 embryonic stem cell marker expression by immunofluorescence (IF); settings: 10 μM peptide for 10 days; compared with cells without peptide and control peptides C1 or C2; FIG. 2
Experimental: Using the same method as in Example 2-1, reprogramming genes were introduced into the cells by an electroporation method in human dermal fibroblasts and divided in a 6-well coated with vitronectin. Thereafter, expression levels of Oct4 as a marker of embryonic stem cells were compared with each other by using an immunofluorescence (IF) method. The cells treated with 10 μM of each peptide for 10 days were fixed with 4% paraformaldehyde for 10 minutes at room temperature, and then 0.5% Triton-X 100 was added and they were cultured for 15 minutes at room temperature to pass through a cell wall and to penetrate into nuclei in the cells, and blocked with a buffer PBS in which 3% bovine serum albumin (BSA) was dissolved for 30 minutes. An Oct4 primary antibody was diluted with a buffer PBS in which 1% BSA was dissolved at a ratio of 1:100 and reacted for 16 hrs at 4° C. and a secondary antibody bound with fluorescein isothiocyanate (FITC) was diluted at a ratio of 1:200 and reacted for 1 hr at room temperature. Finally, a dye (Hoechst 33342, blue) for staining nuclei was treated for 10 minutes at room temperature and washed with a buffer PBS, and colonies with the clearest fluorescent expression in the well were photographed with a confocal scanning microscope (IX 70, Olympus Co., Tokyo, Japan).

[3] = system: human dermal fibroblasts (hDF) introduced with reprogramming genes; assay: Colony number of induced pluripotent stem cells by alkaline phosphatase (AP) staining; settings: for dedifferentiation induction, graph counting and quantifying the number of colonies / AP-stained colonies: 10 μM peptide, 10 days at 24-hr intervals, FIG. 1; for AP-stained colonies: compared with cells without peptide and control peptides C1 or C2; for AP staining clarity: group treated with peptide, reported with FIG. 2
Description: In order to verify the dedifferentiation induction efficiency of each peptide, the DNAs of reprogramming genes Oct3/4, Sox2, c-Myc, Klf4, and Lin28 were introduced to human dermal fibroblasts (hDF) of 1.5×10^5/well on a 6-well coated with […] of vitronectin recombinant human protein (VTN-N) by an electroporation method. According to a known method, the reprogramming genes were divided into three groups and cloned into three different episomal vectors and expressed together with p53 shRNA(pCXLE-hOCT3/4-shp53, pCXLE-hSK, and pCXLE-hUL) to enhance the establishment efficiency of dedifferentiation of stem cells (Okita, K. et al., Nat. Methods. 8(5):409-12, 2011). The cells introduced with the reprogramming genes were cultured in an Eagle's minimal essential medium (EMEM, ATCC) and the medium was replaced at 24-hr intervals until cell confluency became 50%. When the confluency became 50%, 10 μM of a dedifferentiation induction-promoting peptide and a control peptide were treated, respectively, and the medium was replaced with Essential 8 Medium and the peptides were treated at the same time as the medium replacement every 24 hrs. The peptide was treated for 10 days at 24-hr intervals, and in order to verify dedifferentiation efficiency per peptide, alkaline phosphatase (AP), known as a marker of embryonic stem cells, was used. For AP staining, an alkaline phosphatase detection kit(Milipore) was used. The medium was removed, 4% paraformaldehyde was added to the cells and they were immobilized for 2 minutes, a Naphthol/Fast Red Violet staining agent was added in a well and reacted at room temperature in a dark space for 20 minutes or more, and then the staining agent was washed with Dulbecco's phosphate buffered saline (DPBS) and the number of stained colonies was verified with a microscope.

Sequence | change of mesenchymal shape of dermal fibroblasts to epithelial shape (THY1/EPCAM, FACS) [1] | Oct4 fluorescence expression (IF) [2] | dedifferentiation induction, graph counting and quantifying the number of colonies [3] | AP-stained colonies [3] | AP staining clarity [3]
GKCSTRGRKMCRRKK [Peptide P3] | significantly changed to an epithelial shape | more fluorescence was expressed | more efficiently induced dedifferentiation | more colonies were stained | clearer
GKCSTRGRKCMRRKK (Functional Peptide P2) [peptide P1 with the fifth cysteine of C terminal substituted with methionine] | significantly changed to an epithelial shape | more fluorescence was expressed | more efficiently induced dedifferentiation | more colonies were stained | clearer
GKCSTRGRKCCRRKK (Functional Peptide P1) [dedifferentiation induction-promoting functional peptide] | significantly changed to an epithelial shape | more fluorescence was expressed | more efficiently induced dedifferentiation | more colonies were stained | clearer
